# Assay results: patent publication US20240398835A1, “METHODS FOR TREATING CONGENITAL DISORDERS OF GLYCOSYLATION” (priority 2023, published 2024)
# Key:
# Assay type in all cases: in vivo
# [1] = system: R318W PM 1 (R318W Human / R298W C. elegans point mutation); assay: C. elegans model growth assay (worm body area), R318W PM 1 line
# Method: (§1) Five lines of GMPPA disorder models were generated in C. elegans using CRISPR/Cas9 gene editing: • One line GMPPA Human (Y47DA9.1 C. elegans) knockout (GMPPA KO) • Two lines T292P Human (S272P C. elegans) point mutation (T292P PM1, T292P PM2) • Two lines R318W Human (R298W C. elegans) point mutation (R318W PM1, R318W PM2)
# (§2) These animals were tested for growth delays, temperature sensitivity, and mitotic stress sensitivity, with the dual goals of validating C. elegans as a model for studying GMPPA-CDG and identifying a robust phenotype that could be leveraged in future screening of novel pharmaceuticals for the treatment of the deleterious effects of this mutation.
# (§3) To assess the effect of Compounds 1-6 on mitigating the growth deficit of C. elegans carrying a mutation in the GMPPA gene, the growth of the five mutant GMPPA C. elegans lines that were either untreated or treated with one of 6 different drugs (Compounds 1-6), at different concentrations, was measured. C. elegans were allowed to develop to the LI larval stage in the liquid solution. LI C. elegans were then placed onto plates seeded with inactivated OP50 containing the appropriate drug treatment in 0.1% DMSO, and were kept at 20° C. throughout the assay. About thirty 30 C. elegans synchronized at the LI stage of each genotype were placed onto 3 replicate plates containing the appropriate drug treatment and allowed to grow to adulthood at 20° C. Plates were imaged at the same time each day using the WormLab system (MBF Bioscience). Worm area was measured using the WormLab software. Animal sizes of each treatment were compared to sizes of untreated N2 control animals, as well as untreated animals of the same genotype on each day using ANOVA, followed by post-hoc t-tests corrected for multiple comparisons using the Benjamini-Hochberg correction procedure. Analyses were performed and plotted using custom R code.
# (§4) To study the effects of the different drugs on growth, the size (body area) of animals treated with each concentration of each drug was compared to the size (body area) of untreated animals of the same genotype on the same day.
# [2] = system: GMPPA KO (GMPPA Human / Y47DA9.1 C. elegans knockout); assay: C. elegans model growth assay (worm body area), GMPPA KO line
# Method: as §1, §2, §3, §4
# [3] = system: R318W PM 2 (R318W Human / R298W C. elegans point mutation); assay: C. elegans model growth assay (worm body area), R318W PM 2 line
# Method: as §1, §2, §3, §4
# [4] = system: T292P PM 1 (T292P Human / S272P C. elegans point mutation); assay: C. elegans model growth assay (worm body area), T292P PM 1 line
# Method: as §1, §2
# as §3, with “code. […]” for “code.”
# [5] = system: T292P PM 2 (T292P Human / S272P C. elegans point mutation); assay: C. elegans model growth assay (worm body area), T292P PM 2 line; details: 200 nM, Young Adult
# Method: as §1, §2
# To assess the effect of Compounds 1-6 on mitigating the growth deficit of C. elegans carrying a mutation in the GMPPA gene, the growth of the five mutant GMPPA C. elegans lines that were either untreated or treated with one of 6 different drugs (Compounds 1-6), at different concentrations, was measured. C. elegans were allowed to develop to the LI larval stage in the liquid solution. LI C. elegans were then placed onto plates seeded with inactivated OP50 containing the appropriate drug treatment in 0.1% DMSO, and were kept at 20° C. throughout the assay. […] Worm area was measured using the WormLab software. […]
# [6] = 20 μM (as printed, second 20 μM group, last in table), Adult (day 5)
# [7] = 20 μM (as printed, second 20 μM group, last in table), Young Adult
# [8] = 200 μM (third concentration group), Adult (day 5)
# [9] = 200 μM (third concentration group), Young Adult
# [10] = 200 μM (third concentration group), Adult (day 4)
Structure (SMILES),"% Increase size (compared to untreated) ([1]; 20 nM, Adult (day 5))","% Increase size (compared to untreated) ([1]; 20 nM, L3)","% Increase size (compared to untreated) ([1]; 20 nM, Young Adult)","% Increase size (compared to untreated) ([1]; 200 nM, Adult (day 5))","% Increase size (compared to untreated) ([1]; 200 nM, Young Adult)","% Increase size (compared to untreated) ([1]; 2 μM, Adult (day 5))","% Increase size (compared to untreated) ([1]; 2 μM, Young Adult)","% Increase size (compared to untreated) ([1]; 20 μM, L3)","% Increase size (compared to untreated) ([2]; 2 μM, Adult (day 4))","% Increase size (compared to untreated) [1, 6]","% Increase size (compared to untreated) [1, 7]","% Increase size (compared to untreated) ([1]; 20 μM, Adult (day 5))","% Increase size (compared to untreated) [1, 8]","% Increase size (compared to untreated) [1, 9]","% Increase size (compared to untreated) ([3]; 2 μM, Adult (day 5))","% Increase size (compared to untreated) ([3]; 2 μM, Young Adult)","% Increase size (compared to untreated) [2, 10]","% Increase size (compared to untreated) ([1]; 20 μM, Young Adult)","% Increase size (compared to untreated) ([3]; 2 μM, Adult (day 4))","% Increase size (compared to untreated) ([3]; 20 μM, Young Adult)",other results
"CC(C)(C)NC(=O)[C@H]1CC[C@H]2[C@@H]3CC[C@H]4NC(=O)C=C[C@]4(C)[C@H]3CC[C@]12C [Compound 1, finasteride]",8.79%,12.77%,11.59%,7.28%,16.92%,9.08%,12.70%,10.73%,6.47%,,,,,,,,,,,,"% Increase size (compared to untreated) ([1]; 200 nM, L3): 13.73%"
"CC(O)(CS(=O)(=O)c1ccc(F)cc1)C(=O)Nc1ccc(C#N)c(C(F)(F)F)c1 (centres unmarked) [Compound 2, N-(4-cyano-3-(trifluoromethyl)phenyl)-3-((4-fluorophenyl)sulfonyl)-2-hydroxy-2-methylpropanamide]",,,,,,13.14%,15.14%,,,12.37%,9.40%,6.98%,13.42%,15.18%,9.82%,20.08%,10.83%,,,,"% Increase size (compared to untreated) ([2]; 20 μM, Adult (day 4)): 9.60%; % Increase size (compared to untreated) [4, 9]: 16.12%"
"CCn1cc(C(=O)O)c(=O)c2cnc(N3CCNCC3)nc21 [Compound 3, 8-Ethyl-5,8-dihydro-5-oxo-2-(1-piperazinyl)pyrido (2,3-d)pyrimidine-6-carboxylic acid]",,,,,,8.12%,18.05%,14.96%,12.37%,12.27%,15.84%,12.83%,10.51%,14.43%,,,7.92%,9.03%,11.20%,14.52%,"% Increase size (compared to untreated) ([3]; 20 μM, Adult (day 5)): 5.57%; % Increase size (compared to untreated) ([3]; 20 μM, L3): 11.65%; % Increase size (compared to untreated) ([3]; 200 μM, Adult (day 4)): 8.02%; % Increase size (compared to untreated) ([3]; 200 μM, Adult (day 5)): 5.96%; % Increase size (compared to untreated) ([2]; 2 μM, Young Adult): 12.64%; % Increase size (compared to untreated) ([4]; 2 μM, Adult (day 5)): 14.96%"
"Cc1nc2n(c(=O)c1CCN1CCC(c3noc4cc(F)ccc34)CC1)CCCC2O (centres unmarked) [Compound 4, 3-(2-(4-(6-fluorobenzo[d]isoxazol-3-yl)piperidin-1-yl)ethyl)-9-hydroxy-2-methyl-6,7,8,9-tetrahydro-4H-pyrido[1,2-a]pyrimidin-4-one]",10.32%,,11.38%,11.03%,,9.47%,14.09%,,6.86%,,,10.72%,,,6.08%,,,,,,"% Increase size (compared to untreated) ([3]; 200 nM, Adult (day 4)): 8.35%; % Increase size (compared to untreated) ([2]; 20 nM, Adult (day 4)): 7.18%; % Increase size (compared to untreated) ([4]; 20 μM, Adult (day 5)): 6.70%"
"C[C@H](NCc1ccc(OCc2cccc(F)c2)cc1)C(N)=O [Compound 5, (S)-2-((4-((3-fluorobenzyl)oxy)benzyl)amino) propanamide]",11.09%,,,9.35%,,9.47%,16.21%,,,,,,,,5.51%,,,,,,"% Increase size (compared to untreated) ([1]; 2 μM, L3): 16.41%"
"Cc1ccc2c([nH]c(=O)c3c(=O)cc(C(=O)OCCC(C)C)oc32)c1C [Compound 6, 3-methylbutyl 7,8-dimethyl-4,5-dioxo-6H-pyrano[3,2-c]quinoline-2-carboxylate]",11.15%,18.59%,27.26%,12.15%,18.38%,7.41%,16.84%,13.93%,6.58%,,,10.80%,,,,18.25%,,18.41%,8.97%,22.20%,"% Increase size (compared to untreated) ([3]; 20 nM, Young Adult): 20.62%; % Increase size (compared to untreated) ([3]; 200 nM, Adult (day 4)): 7.96%; % Increase size (compared to untreated) ([3]; 200 nM, Young Adult): 25.23%; % Increase size (compared to untreated) ([2]; 20 μM, Young Adult): 13.22%; % Increase size (compared to untreated) [5]: 13.63%"
